Activity calls are given as the source filed them.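 The calls were made as follows: active = fitted curve reaches -35% activity change at a concentration below twice the top valid dose tested; inactive = the rest, including effects opposite to the expected direction.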
Assay: EWS/Fli1-dependent A673 cell killing, confirmation, CellTiter-Glo luminescence, cherry-pick retest (AID 720587)
Conditions: A673 Ewing sarcoma viability, CellTiter-Glo ATP luminescence, 72 h

Structure (SMILES) | activity change, negative = cytotoxicity (at 26 µM (top of the series)) | further results
O=C1C(=O)N(Cc2cccs2)c2ccccc21 | -4.57% (inactive) | 
CCNC(=O)c1cccc(S(=O)(=O)N2CCCCCC2)c1 | 0.705% (inactive) | 
C=CCn1c(O)c(N=Nc2ccccc2)c2ccccc21 | 7.11% (inactive) | 
CC(=O)c1ccc(NC(=O)c2noc3c2CCC3)cc1 | -3.66% (inactive) | 
C[C@@H]1CN([C@H](C)CO)S(=O)(=O)c2ccc(C#CC3CC3)cc2O[C@@H]1CN(C)Cc1ccccc1F | -19.6% (inactive) | 
COc1ccc(/C=C2\SC(=O)N(CCCC(=O)Nc3cc(Cl)ccc3C(=O)O)C2=O)cc1 | 1.72% (inactive) | 
O=C(Nc1nc(-c2ccc(F)c(F)c2)cs1)c1ccc(OCC2CCCO2)cc1 (stereo not given) | 5.7% (inactive) | 
Nc1ncn([C@@H]2O[C@H](CO)[C@@H](O)[C@H]2O)c(=O)n1 | -13.8% (inactive) | 
O=c1c2ccccc2oc2ccc(C#CC3(O)CCCCC3)cc12 | 1.29% (inactive) | 
CC(Oc1cccc(Cl)c1)C(=O)NCCCCc1ccccc1 (stereo not given) | 3.26% (inactive) | 
COC(=O)Cc1[nH]n(-c2nc3ccccc3s2)c(=O)c1C(C)=Nc1ccc(C)cc1 | -10.7% (inactive) | 
CCc1ccc(/C=C2\SC(=S)N(CCC(=O)Nc3cc(C)on3)C2=O)cc1 | 6.27% (inactive) | 
CCCCN=C(NNc1ccc(Br)cc1)C(=O)OCC | -5.32% (inactive) | 
N#C[C@@H]1[C@H](c2ccc(C#Cc3ccccc3F)cc2)[C@@H](CO)N1C(=O)c1cccnc1 | 1.54% (inactive) | 
CC(=O)N1CCCC(c2cc(C(=O)Nc3ccccc3)no2)C1 (stereo not given) | 9.56% (inactive) | 
CN(C)[C@@H]1CCC[C@@H]1OC(=O)C(c1ccccc1)c1ccccc1 | -2.99% (inactive) | 
COc1ccc(/C=C2\SC(=S)N(CCCC(=O)NC3CCCC3)C2=O)cc1OC | -18.4% (inactive) | 
Cc1ccsc1C(=O)OCC(=O)c1cc(C)n(C)c1C | -0.814% (inactive) | 
CC(C)NC(=O)N(C)C[C@@H]1Oc2cc(C#Cc3ccc(F)cc3)ccc2S(=O)(=O)N([C@H](C)CO)C[C@H]1C | -18.2% (inactive) | 
CCc1ccc(/C=C2\SC(=S)N(CCCC(=O)NC3=NCCS3)C2=O)cc1 | 1.62% (inactive) | 
O=C(O)c1cccc(N/N=C/c2cccs2)c1 | -8.12% (inactive) | 
O=C1NC(=O)N(CCc2ccc(F)cc2)C(=O)/C1=C/C=C/c1ccccc1 | 0.109% (inactive) | 
CN(C)C(=O)c1ccc(-c2ccccc2[C@@H]2[C@@H](CO)N(C(=O)C3CC3)[C@H]2C#N)cc1 | 0.679% (inactive) | 
COc1ccccc1-c1cn(CC[C@H]2CC[C@@H](NC(=O)C3CCCC3)[C@@H](CO)O2)nn1 | 6.63% (inactive) | 
CN(C)c1ccc(N=Nc2ccc(C(=O)O)cc2)cc1 | 1.5% (inactive) | 
COc1ccc(CNc2ncc(-c3ccc(F)cc3)n2C)c2ccccc12 | 2.68% (inactive) | 
COC(=O)c1cccc(NC(=O)NC(=O)c2ccccc2Cl)c1 | -9.77% (inactive) | 

Structure (SMILES) | activity change, negative = cytotoxicity (at 26 µM (top of the series)) | further results
O=C(O)c1ccc(N/N=C/c2ccc(OC(=O)c3cccc(Cl)c3)cc2)cc1 | -8.45% (inactive) | 
O=C(NCCc1ccccc1)c1ccccc1NC(=O)C1CCCO1 (stereo not given) | 0.338% (inactive) | 
COc1ccc(/C=C2\SC(=S)N(CCCC(=O)Nc3ccc(O)cc3)C2=O)cc1 | -14.2% (inactive) | 
COc1ccc(/C=C2/SC(=S)N(CCCC(=O)Nc3ccccc3C(=O)O)C2=O)cc1 | 5.45% (inactive) | 
C[C@@H]1CN([C@H](C)CO)C(=O)c2cc(C#CCc3ccccc3)cnc2O[C@@H]1CN(C)Cc1cccc(F)c1 | -13.4% (inactive) | 
C/C=C/c1ccc([C@H]2[C@@H](CO)N3C(=O)CN(S(=O)(=O)c4cccc(F)c4)C[C@@H]23)cc1 | -5.5% (inactive) | 
COc1ccc(C(=O)CN2C(=O)c3ccccc3S2(=O)=O)cc1 | 1.43% (inactive) | 
O=C(CCCN1C(=O)/C(=C/c2ccccc2Cl)SC1=S)NNC(=O)c1ccc(Cl)cc1Cl | -0.616% (inactive) | 
COc1ccccc1NC(=O)N1[C@@H]2CNC[C@H]1[C@@H]2c1ccc(-c2ccc(C#N)cc2)cc1 |  | activity change, negative = cytotoxicity (at 23.5 µM (top of the series)): 13.3% (inactive)
Nc1ccc(Oc2cccc(Oc3ccc(N)cc3)c2)cc1 | -3.72% (inactive) | 
Cc1c(-c2nc(-c3ccc(C(C)(C)C)cc3)no2)n(C)oc1=O | 2.17% (inactive) | 
COC(=O)C[C@@H]1CC[C@@H]2[C@H](COc3ccc(NC(=O)c4cccc(Cl)c4)cc3C(=O)N2C)O1 |  | activity change, negative = cytotoxicity (at 23.5 µM (top of the series)): -7.39% (inactive)
N#C[C@H]1[C@H](c2ccc(C#Cc3ccccc3F)cc2)[C@@H](CO)N1C(=O)C1CCCCC1 |  | activity change, negative = cytotoxicity (at 23.5 µM (top of the series)): -7.62% (inactive)
N#C[C@H]1[C@H](c2ccc(C#Cc3ccccc3F)cc2)[C@@H](CO)N1C(=O)C1CCOCC1 | -1.72% (inactive) | 
C/C(=N\Nc1cccc2cccnc12)c1ccccn1 | -0.624% (inactive) | 
O=C1C(=O)N(CCS(=O)(=O)c2ccccc2)c2ccccc21 | 12.4% (inactive) | 
COC(=O)COc1ccc(-c2nccc(-c3ccccn3)n2)cc1 | 11.6% (inactive) | 
Cc1csc(NC(=O)CCc2c(C)nc3cc(-c4ccc(Cl)cc4)nn3c2C)n1 | 1.02% (inactive) | 
CCOc1ccc(/C=C2\CCc3ccccc3C2=O)cc1 | -1.55% (inactive) | 
COc1ccc(NS(=O)(=O)c2cc(NC(=O)CNC(=O)c3cccc(OC)c3)ccc2C)cc1 |  | activity change, negative = cytotoxicity (at 8 µM (top of the series)): 12.2% (inactive)
Cc1cc(-c2nc3cc(F)ccc3s2)ccc1N | -13.6% (inactive) | 
COc1ccc(C/C(N)=N/OC(C)=O)cc1OC | 0.039% (inactive) | 
C[C@@H]1CN([C@@H](C)CO)C(=O)c2cccc(NC(=O)Nc3ccccc3)c2O[C@@H]1CN(C)Cc1ccc(-c2ccccc2)cc1 | -1.33% (inactive) | 
CC(=O)Nc1ccc(OCC(=O)N(CC(C)C)C2CCS(=O)(=O)C2)cc1 (stereo not given) | 8.05% (inactive) | 
N#C[C@@H]1[C@H](c2ccc(C#Cc3cccc(F)c3)cc2)[C@@H](CO)N1C(=O)C1CCCC1 | -2.07% (inactive) | 
O=C(Nc1ccc(NC(=O)c2cc3ccccc3o2)cc1)c1ccc2c(c1)OCCO2 | 7.76% (inactive) | 
Cc1c(CC(=O)NCCCC(=O)O)c(=O)oc2cc3c(cc12)CCC(C)(C)O3 | -4.88% (inactive) | 

Structure (SMILES) | activity change, negative = cytotoxicity (at 26 µM (top of the series)) | further results
S=C(NCCN1CCOCC1)Nc1ccccc1Cl | 3% (inactive) | 
Cc1ccc(C(=O)CN2C(=O)c3ccccc3S2(=O)=O)cc1 | 11.7% (inactive) | 
CCc1ccc(Cn2ncc3c(C(=O)O)cc(C)nc32)cc1 | 17.3% (inactive) | 
O=C1CCC2S/C(=C/Nc3ccc(C(F)(F)F)cc3)C(=O)N12 (stereo not given) | -2.74% (inactive) | 
COC(=O)C[C@@H]1CC[C@@H]2[C@H](COc3ccc(NC(=O)c4cccc(F)c4)cc3C(=O)N2C)O1 |  | activity change, negative = cytotoxicity (at 23.5 µM (top of the series)): -1.57% (inactive)
CC(C)CC(NC(=O)c1cccs1)c1nnc(SCc2ccc(Cl)c(Cl)c2)n1C (stereo not given) | 6.55% (inactive) | 
C(=N\Nc1ccc2ccccc2n1)/c1ccc2c(c1)OCCO2 | -22.2% (inactive) | 
CCOc1ccccc1CNC(=O)c1ccc(Sc2ccc(Cl)cc2)c(NC(C)=O)c1 | -0.342% (inactive) | 
CC(C)(C)c1ccc(/C=N/Nc2ccc(C(=O)O)cc2)cc1 | -3.68% (inactive) | 
Cc1cc(C)cc(OCC(=O)OCC(=O)Nc2cc(S(=O)(=O)N3CCOCC3)ccc2C)c1 | -2.43% (inactive) | 
CCCn1c(C)cc(C(=O)CN2C(=O)c3ccccc3S2(=O)=O)c1C | 11.3% (inactive) | 
O=C(NCc1ccccn1)c1ccc(CNS(=O)(=O)c2cccc(Cl)c2)cc1 | 0.155% (inactive) | 
CCCNC(=O)[C@@H]1[C@@H](CO)[C@@H]2Cn3c(ccc(-c4ccccc4)c3=O)[C@H]1N2C(=O)CC | 14.5% (inactive) | 
COC(=O)C[C@@H]1CC[C@@H]2[C@H](COc3ccc(NC(=O)c4cc(F)cc(F)c4)cc3C(=O)N2C)O1 | -0.378% (inactive) | 
O=C(O)c1ccc(N/N=C/c2c[nH]c3ccccc23)cc1 | -1.6% (inactive) | 
C[C@@H]1CN([C@@H](C)CO)S(=O)(=O)c2ccc(C#CCN(C)C)cc2O[C@@H]1CN(C)Cc1ccncc1 | -10.8% (inactive) | 
CCOC(=O)Cc1csc(NC(=S)NC(=O)c2ccc(C)cc2)n1 | -1.19% (inactive) | 
O=C(C[C@@H]1CC[C@@H]2[C@H](COC[C@@H](O)CN2S(=O)(=O)c2ccc(F)cc2)O1)NCc1ccc(Cl)c(Cl)c1 | 8.17% (inactive) | 
CCc1cnc(N2[C@H](C#N)[C@H](c3ccc(C#Cc4ccccc4F)cc3)[C@H]2CO)s1 | -10.8% (inactive) | 
Cc1[nH]c(=S)sc1Cc1ccc(Cl)c(Cl)c1 | 5.33% (inactive) | 
O=C1CCCC2=C1C(c1ccccn1)Nc1ccc(C(=O)c3ccccc3)cc1N2 (stereo not given) | 3.59% (inactive) | 
CC1=NC(=O)C(N=Nc2cccc(C(=O)O)c2)N1c1ccccc1 (stereo not given) | -2.93% (inactive) | 
O=C(NC1CCCC1)C(c1ccccc1)n1c(CSCCOc2ccccc2)nc2ccccc21 (stereo not given) | -7.19% (inactive) | 
Cc1cc(Br)ccc1N=C1C(=O)Nc2ccccc21 | -19% (inactive) | 
O=C(NC(=O)c1ccccc1)Nc1ccccc1 | -3.17% (inactive) | 
C/C(=N\OCc1cccc(C(=O)O)c1)c1ccc(Cl)cc1 | -3.02% (inactive) | 

Source: PubChem BioAssay AID720587 (Broad Institute, 2013)
